Reference: the supplement of paper PMC6045584
± gives the standard deviation of the averaged measurements.

Experiments:
ERLOTINIB = compound: C#Cc1cccc(Nc2ncnc3cc(OCCOC)c(OCCOC)cc23)c1 [ERLOTINIB]; experiment: surviving fraction relative to DMSO-only wells; higher = less growth inhibition; conditions: exposure time: 5 days
Summary of the method: (§1)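 Tumour cell lines in log phase were plated in 384-well plates at 250–500 cells per well, then, after 24 hours, exposed continuously for five days to inhibitors at 0.5, 1, 5, 10, 50, 100, 500 and 1000 nM. Viability came from CellTiter-Glo luminescence, and surviving fraction is that signal normalised to the median of DMSO-only wells. Plates were read after 10 minutes at room temperature, and each line, screened three times, was kept only when replicate Pearson r was >0.7 and median Z' was >0.3.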

VINORELBINE = compound: CCC1=C[C@@H]2CN(C1)Cc1c([nH]c3ccccc13)[C@@](C(=O)OC)(c1cc3c(cc1OC)N(C)[C@H]1[C@@](O)(C(=O)OC)[C@H](OC(C)=O)[C@]4(CC)C=CCN5CC[C@]31[C@@H]54)C2 [VINORELBINE]; experiment: as above; conditions: exposure time: 5 days
Summary of the method: as §1

| Test System | surviving fraction (ERLOTINIB; 5 nM) | surviving fraction (ERLOTINIB; 10 nM) | surviving fraction (ERLOTINIB; 50 nM) | surviving fraction (ERLOTINIB; 100 nM) | surviving fraction (ERLOTINIB; 500 nM) | surviving fraction (ERLOTINIB; 1000 nM) | surviving fraction (VINORELBINE; 0.5 nM) | surviving fraction (VINORELBINE; 1 nM) | surviving fraction (VINORELBINE; 5 nM) | surviving fraction (VINORELBINE; 10 nM) | surviving fraction (VINORELBINE; 50 nM) | surviving fraction (VINORELBINE; 100 nM) | surviving fraction (VINORELBINE; 500 nM) | surviving fraction (VINORELBINE; 1000 nM) | surviving fraction (ERLOTINIB; 1 nM) |
| --- | --- | --- | --- | --- | --- | --- | --- | --- | --- | --- | --- | --- | --- | --- | --- |
| C33A CERVIX | 1.06 ± 0.03 | 1.14 ± 0.019 | 1.06 ± 0.077 | 1.08 ± 0.029 | 0.819 ± 0.052 | 0.655 ± 0.031 | 1.02 ± 0.15 | 1.02 ± 0.1 | 1.03 ± 0.11 | 0.78 ± 0.04 | 0.121 ± 0.0098 | 0.102 ± 0.028 | 0.0543 ± 0.026 | 0.0423 ± 0.0078 | – |
| CAL72 BONE | 1.05 ± 0.1 | – | – | 1.1 ± 0.083 | 1.06 ± 0.084 | 1.07 ± 0.058 | 1.04 ± 0.036 | 1.05 ± 0.036 | 1 ± 0.024 | 0.9417 ± 0.0083 | 0.43 ± 0.056 | 0.34 ± 0.05 | 0.213 ± 0.018 | 0.213 ± 0.026 | – |
| G292 BONE | 1.03 ± 0.051 | 1.06 ± 0.018 | 1.05 ± 0.038 | 1.07 ± 0.033 | 0.979 ± 0.019 | 1.07 ± 0.092 | 0.962 ± 0.012 | 1.01 ± 0.045 | 0.704 ± 0.0075 | 0.416 ± 0.013 | 0.221 ± 0.02 | 0.189 ± 0.0081 | 0.144 ± 0.013 | 0.105 ± 0.011 | – |
| HCC1395 BREAST | 1.33 ± 0.036 | 1.18 ± 0.14 | – | 1.28 ± 0.027 | 1.14 ± 0.042 | 1.19 ± 0.051 | 1.04 ± 0.21 | 1.09 ± 0.16 | 1.13 ± 0.077 | 1.11 ± 0.031 | 0.952 ± 0.083 | 0.727 ± 0.12 | 0.575 ± 0.16 | 0.467 ± 0.057 | 0.992 ± 0.02 |
| HUO3N1 BONE | – | 1.117 ± 0.0084 | 1.13 ± 0.025 | 1.1 ± 0.018 | 1.02 ± 0.025 | 1.02 ± 0.038 | 1.01 ± 0.032 | 1.02 ± 0.012 | 1.03 ± 0.039 | 0.935 ± 0.017 | 0.308 ± 0.039 | 0.182 ± 0.025 | 0.183 ± 0.0055 | 0.179 ± 0.018 | – |
| LNCAP PROSTATE | 0.956 ± 0.032 | 0.892 ± 0.053 | 0.947 ± 0.1 | 1.02 ± 0.054 | – | 0.967 ± 0.028 | 0.816 ± 0.12 | 0.843 ± 0.12 | 0.667 ± 0.038 | 0.458 ± 0.056 | 0.06 ± 0.0053 | 0.054 ± 0.0044 | 0.058 ± 0.001 | 0.0507 ± 0.0083 | – |
| SCC003 HEADNECK | 1.13 ± 0.045 | 1.06 ± 0.11 | 0.997 ± 0.091 | 1.04 ± 0.051 | 0.702 ± 0.024 | 0.552 ± 0.038 | 1.02 ± 0.16 | 1.08 ± 0.067 | 0.967 ± 0.13 | 0.862 ± 0.064 | 0.271 ± 0.039 | 0.256 ± 0.02 | 0.34 ± 0.045 | 0.311 ± 0.036 | – |
